Measurements taken from patent publication EP0041795A2, “Injectable composition of rapamycin” (AYERST, MCKENNA AND HARRISON INC., priority 1980, dated 1981).

Test: Solubility of rapamycin
Format: physicochemical

CO[C@H]1C[C@@H]2CC[C@@H](C)[C@@](O)(O2)C(=O)C(=O)N2CCCC[C@H]2C(=O)O[C@H]([C@H](C)C[C@@H]2CC[C@@H](O)[C@H](OC)C2)CC(=O)[C@H](C)/C=C(\C)[C@@H](O)[C@@H](OC)C(=O)[C@H](C)C[C@H](C)/C=C/C=C/C=C/1C [Rapamycin]
solubility in aqueous solutions (aqueous solutions): virtually insoluble
solubility in surfactants (most surfactants, including the nonionic surfactants): insoluble
solubility in polyoxyethylated glycerin hydroxy fatty acids (rapamycin per se, polyoxyethylated glycerin hydroxy fatty acids): does not readily go into solution
